In patent US12378202B2, “Tetrahydrobenzoazepinones and related analogs for inhibiting YAP/TAZ-TEAD” (THE KATHOLIEKE UNIVERSITEIT LEUVEN, priority 2021, dated 2025):

What was measured:
Assay type in all cases: cell-based
[1] = system: YAP/TAZ-TEAD transcription; test: Reporter gene assay (TEAD-responsive element luciferase reporter in Hek293T cells) for inhibition of YAP/TAZ-TEAD transcription; conditions: 24 hours incubation
Description: Hek293T cells are cultured in DMEM supplemented with 10% fetal bovine serum, Sodium pyruvate, Sodium bicarbonate, L-glutamine. The cells are harvested and transiently transfected with TEAD-responsive element luciferase reporter. Transfected cells are plated in 384-wells plate containing pre-diluted compounds. After 24 hours incubation at 37° C./5% CO2, assay plates were cooled down to RT and levelled to an equal volume per well, prior to the addition of 25 uL luciferase substrate SteadyLite (Perkin Elmer)/well. The plate was shaken for 10 min at 600 rpm, centrifuged for 1 min at 500 rpm and measured with an Envision reader (PerkinElmer). The amount of relative light units produced by the TEAD reporter is used to calculated percent of inhibition.
The percent of reporter inhibition was calculated in the presence of a positive control inhibitor (100% inhibition)versus a condition with the presence of the vehicle basal activity of the reporter (0% inhibition). The ability of a test compound to inhibit this activity was determined as:
Percentage inhibition=[1-((RLU determined in the presence of vehicle−RLU determined for sample with test compound present) divided by (RLU determined in the presence of vehicle−RLU determined for sample with positive control inhibitor))]*100
The activities of example compounds tested are depicted in Table 3. The activity ranges A, B and C refer to IC50 values in the reporter gene assay as follows: “A”: IC50<1 μM; “B”: 1 μM≤IC50≤20 μM and “C”: IC50>20 μM; NT=not tested.

NCI-H226 = test: Mesothelioma cell line proliferation assay (ATPlite), NCI-H226; conditions: Homo sapiens, 144 h; NCI-H226 mesothelioma cells, 6 days incubation, ATPlite cell viability
Description: (§1) Mesothelioma cell lines, NCI-H226 and NCI-H2052 (all sourced from the ATCC cell culture collection) are plated in 96-well plates (Corning® 96 Well White Polystyrene Microplate clear flat bottom, white polystyrene (TC-Treated)), at 1500 cells/well in full medium (RPMI 1640 ATCC modification with L-glutamine, HEPES, Phenol Red, Sodium Pyruvate, High glucose, Low sodium bicarbonate and 10% fetal bovine serum). Cells are incubated overnight at 37° C. in an incubator with 5% CO2. Then compounds, dissolved in DMSO, are added in dose-response. Cells are incubated with compound dilutions for another 6 days at 37° C. in an incubator with 5% CO2. Cell viability is quantitated using the ATPlite kit (Perkin-Elmer) and the luminescence is read-out using an Envision instrument (Perkin-Elmer). The amount of relative light units produced using the ATPlite kit is used to calculated percent of inhibition.
(§2) The activities of some example compounds are depicted in Table 4. The activity ranges A, B and C refer to EC50 values in the mesothelioma cell line proliferation assay as described as follows: “A”: EC50<1 μM; “B”: 1 μM≤EC50≤10 μM and “C”: EC50>10 μM; NT: not tested.

NCI-H2052 = test: Mesothelioma cell line proliferation assay (ATPlite), NCI-H2052; conditions: Homo sapiens, 144 h; NCI-H2052 mesothelioma cells, 6 days incubation, ATPlite cell viability
Description: as §1, §2

Row | IC50 ([1]; Homo sapiens, HEK-293T) | IC50 [1] | EC50 (NCI-H226) | EC50 (NCI-H2052) | Compound
1 | 1000 to 20000 nM | – | – | – | OCCNC1CCc2ccccc2N(c2ccc(C(F)(F)F)cc2)C1 (single isomer, unassigned) [Cpd. No. 003-En1, (R)- or (S)-2-((1-(4-(trifluoromethyl)phenyl)-2,3,4,5-tetrahydro-1H-benzo[b]azepin-3-yl)amino)ethan-1-ol]
2 | – | 1000 to 20000 nM | – | – | OCCNC1CCc2ccccc2N(c2ccc(C(F)(F)F)cc2)C1 (single isomer, unassigned) [Cpd. No. 003-En2, (R)- or (S)-2-((1-(4-(trifluoromethyl)phenyl)-2,3,4,5-tetrahydro-1H-benzo[b]azepin-3-yl)amino)ethan-1-ol]
3 | < 1000 nM | – | – | – | C=CC(=O)NC1CCc2ccccc2N(c2ccc(C(F)(F)F)cc2)C1 (single isomer, unassigned) [Cpd. No. 008-En1, (R)- or (S)-N-(1-(4-(trifluoromethyl)phenyl)-2,3,4,5-tetrahydro-1H-benzo[b]azepin-3-yl)acrylamide]
4 | – | < 1000 nM | – | – | C=CC(=O)NC1CCc2ccccc2N(c2ccc(C(F)(F)F)cc2)C1 (single isomer, unassigned) [Cpd. No. 008-En2, (R)- or (S)-N-(1-(4-(trifluoromethyl)phenyl)-2,3,4,5-tetrahydro-1H-benzo[b]azepin-3-yl)acrylamide]
5 | 1000 to 20000 nM | – | – | – | NC1CCc2ccccc2N(c2ccc(C(F)(F)F)cc2)C1 (stereo not drawn) [Cpd. No. 001, 1-(4-(trifluoromethyl)phenyl)-2,3,4,5-tetrahydro-1H-benzo[b]azepin-3-amine]
6 | > 20000 nM | – | – | – | NC1CCc2ccccc2N(c2ccc(C(F)(F)F)cc2)C1=O (stereo not drawn) [Cpd. No. 002, 3-amino-1-(4-(trifluoromethyl)phenyl)-1,3,4,5-tetrahydro-2H-benzo[b]azepin-2-one]
7 | 1000 to 20000 nM | – | > 10000 nM | > 10000 nM | OCCNC1CCc2ccccc2N(c2ccc(C(F)(F)F)cc2)C1 (stereo not drawn) [Cpd. No. 003, 2-((1-(4-(trifluoromethyl)phenyl)-2,3,4,5-tetrahydro-1H-benzo[b]azepin-3-yl)amino)ethan-1-ol]
8 | 1000 to 20000 nM | – | – | – | O=C1C(NCCO)CCc2ccccc2N1c1ccc(C(F)(F)F)cc1 (stereo not drawn) [Cpd. No. 004, 3-((2-hydroxyethyl)amino)-1-(4-(trifluoromethyl)phenyl)-1,3,4,5-tetrahydro-2H-benzo[b]azepin-2-one]
9 | 1000 to 20000 nM | – | – | – | OCCCNC1CCc2ccccc2N(c2ccc(C(F)(F)F)cc2)C1 (stereo not drawn) [Cpd. No. 005, 3-((1-(4-(trifluoromethyl)phenyl)-2,3,4,5-tetrahydro-1H-benzo[b]azepin-3-yl)amino)propan-1-ol]
10 | > 20000 nM | – | – | – | O=C(O)CCNC1CCc2ccccc2N(c2ccc(C(F)(F)F)cc2)C1 (stereo not drawn) [Cpd. No. 006, 3-((1-(4-(trifluoromethyl)phenyl)-2,3,4,5-tetrahydro-1H-benzo[b]azepin-3-yl)amino)propanoic acid]
11 | > 20000 nM | – | – | – | O=C1C(NCCCO)CCc2ccccc2N1c1ccc(C(F)(F)F)cc1 (stereo not drawn) [Cpd. No. 007, 3-((3-hydroxypropyl)amino)-1-(4-(trifluoromethyl)phenyl)-1,3,4,5-tetrahydro-2H-benzo[b]azepin-2-one]
12 | 1000 to 20000 nM | – | < 1000 nM | < 1000 nM | C=CC(=O)NC1CCc2ccccc2N(c2ccc(C(F)(F)F)cc2)C1 (stereo not drawn) [Cpd. No. 008, N-(1-(4-(trifluoromethyl)phenyl)-2,3,4,5-tetrahydro-1H-benzo[b]azepin-3-yl)acrylamide]
13 | 1000 to 20000 nM | – | – | – | CCC(=O)NC1CCc2ccccc2N(c2ccc(C(F)(F)F)cc2)C1 (stereo not drawn) [Cpd. No. 009, N-(1-(4-(trifluoromethyl)phenyl)-2,3,4,5-tetrahydro-1H-benzo[b]azepin-3-yl)propionamide]
14 | > 20000 nM | – | – | – | C=CC(=O)NC1CCc2ccccc2N(c2ccc(C(F)(F)F)cc2)C1=O (stereo not drawn) [Cpd. No. 010, N-(2-oxo-1-(4-(trifluoromethyl)phenyl)-2,3,4,5-tetrahydro-1H-benzo[b]azepin-3-yl)acrylamide]
15 | 1000 to 20000 nM | – | – | – | O=C1CCCN(c2ccc(C(F)(F)F)cc2)c2ccc(NCCO)cc21 [Cpd. No. 011, 7-((2-hydroxyethyl)amino)-1-(4-(trifluoromethyl)phenyl)-1,2,3,4-tetrahydro-5H-benzo[b]azepin-5-one]
16 | > 20000 nM | – | – | – | O=C1CCCN(c2ccc(C(F)(F)F)cc2)c2ccc(NCCCO)cc21 [Cpd. No. 012, 7-((3-hydroxypropyl)amino)-1-(4-(trifluoromethyl)phenyl)-1,2,3,4-tetrahydro-5H-benzo[b]azepin-5-one]
17 | < 1000 nM | – | < 1000 nM | < 1000 nM | C=CC(=O)NC1Cc2ccccc2N(c2ccc(C(F)(F)F)cc2)C1=O (stereo not drawn) [Cpd. No. 013, N-(2-oxo-1-(4-(trifluoromethyl)phenyl)-1,2,3,4-tetrahydroquinolin-3-yl)acrylamide]
18 | < 1000 nM | – | < 1000 nM | < 1000 nM | C=CC(=O)NC1Cc2c(F)cccc2N(c2ccc(C(F)(F)F)cc2)C1=O (stereo not drawn) [Cpd. No. 014, N-(5-fluoro-2-oxo-1-(4-(trifluoromethyl)phenyl)-1,2,3,4-tetrahydroquinolin-3-yl)acrylamide]
19 | 1000 to 20000 nM | – | – | – | C=CC(=O)NC1Cc2cnccc2N(c2ccc(C(F)(F)F)cc2)C1=O (stereo not drawn) [Cpd. No. 015, N-(2-oxo-1-(4-(trifluoromethyl)phenyl)-1,2,3,4-tetrahydro-1,6-naphthyridin-3-yl)acrylamide]
